Laboratory results published in PubChem BioAssay (NCI).
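Here, GI50 denotes the concentration required for 50% inhibition of growth. Definition used: TGI = concentration required for complete inhibition of growth.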

How the values were obtained:
Test in all cases: DTP human tumour cell line panel, 384-well format
786-0 renal = test system: 786-0 renal
A498 renal = test system: A498 renal
A549 NSCLC = test system: A549 NSCLC
ACHN renal = test system: ACHN renal
BT-549 breast = test system: BT-549 breast
CAKI-1 renal = test system: CAKI-1 renal
CCRF-CEM leukemia = test system: CCRF-CEM leukemia
COLO 205 colon = test system: COLO 205 colon
DU-145 prostate = test system: DU-145 prostate
EKVX NSCLC = test system: EKVX NSCLC
HCC-2998 colon = test system: HCC-2998 colon
HCT-116 colon = test system: HCT-116 colon
HCT-15 colon = test system: HCT-15 colon
HL-60(TB) leukemia = test system: HL-60(TB) leukemia
HOP-62 NSCLC = test system: HOP-62 NSCLC
HOP-92 NSCLC = test system: HOP-92 NSCLC
HS 578T breast = test system: HS 578T breast
HT29 colon = test system: HT29 colon
IGROV1 ovarian = test system: IGROV1 ovarian
K-562 leukemia = test system: K-562 leukemia
KM12 colon = test system: KM12 colon
LOX IMVI melanoma = test system: LOX IMVI melanoma
M14 melanoma = test system: M14 melanoma
MALME-3M melanoma = test system: MALME-3M melanoma
MCF7 breast = test system: MCF7 breast
MDA-MB-231 breast = test system: MDA-MB-231 breast
MDA-MB-435 melanoma = test system: MDA-MB-435 melanoma
MDA-MB-468 breast = test system: MDA-MB-468 breast
MOLT-4 leukemia = test system: MOLT-4 leukemia
NCI-H226 lung = test system: NCI-H226 lung
NCI-H23 lung = test system: NCI-H23 lung
NCI-H322M lung = test system: NCI-H322M lung
NCI-H460 NSCLC = test system: NCI-H460 NSCLC
NCI-H522 lung = test system: NCI-H522 lung
NCI/ADR-RES ovarian = test system: NCI/ADR-RES ovarian
OVCAR-4 ovarian = test system: OVCAR-4 ovarian
OVCAR-5 ovarian = test system: OVCAR-5 ovarian
OVCAR-8 ovarian = test system: OVCAR-8 ovarian
PC-3 prostate = test system: PC-3 prostate
RPMI-8226 leukemia = test system: RPMI-8226 leukemia
RXF 393 renal = test system: RXF 393 renal
SF-268 CNS = test system: SF-268 CNS
SF-295 CNS = test system: SF-295 CNS
SF-539 CNS = test system: SF-539 CNS
SK-MEL-28 melanoma = test system: SK-MEL-28 melanoma
SK-MEL-5 melanoma = test system: SK-MEL-5 melanoma
SN12C renal = test system: SN12C renal
SNB-19 CNS = test system: SNB-19 CNS
SNB-75 CNS = test system: SNB-75 CNS
SW-620 colon = test system: SW-620 colon
T-47D breast = test system: T-47D breast
TK-10 renal = test system: TK-10 renal
U251 glioblastoma = test system: U251 glioblastoma
UACC-257 melanoma = test system: UACC-257 melanoma
UACC-62 melanoma = test system: UACC-62 melanoma
UO-31 renal = test system: UO-31 renal

With `O=C1NC(=O)C(c2cnc3ccccn23)=C1c1cn2c3c(cc(F)cc13)CN(C(=O)N1CCCCC1)CC2` the GI50 ([…]-0 renal) was 0.0779 µM, the TGI (786-0 renal) was 12.4 µM and the GI50 (A498 renal) was 0.0156 µM. It also gave a TGI (A498 renal) of 13.2 µM, a GI50 (A549 NSCLC) of 2.36 µM and a TGI (A549 NSCLC) of 27.8 µM. The GI50 (ACHN renal) was 0.743 µM, the TGI (ACHN renal) was 11.3 µM and the GI50 (BT-549 breast) was less than 0.01 µM. It also gave a TGI (BT-549 breast) of 18.6 µM, a GI50 (CAKI-1 renal) of 0.259 µM and a TGI (CAKI-1 renal) of 51.4 µM. The GI50 (CCRF-CEM leukemia) was less than 0.01 µM, the TGI (CCRF-CEM leukemia) was 0.245 µM and the GI50 (COLO 205 colon) was 12.7 µM. It also gave a TGI (COLO 205 colon) of 26 µM, a GI50 (DU-145 prostate) of 2.18 µM and a TGI (DU-145 prostate) of 8.62 µM. It also gave a GI50 (EKVX NSCLC) of 11.7 µM, a TGI (EKVX NSCLC) of 26.2 µM and a GI50 (HCC-2998 colon) of 0.128 µM. The TGI (HCC-2998 colon) was 0.773 µM, the GI50 (HCT-116 colon) was 1.12 µM and the TGI (HCT-116 colon) was 28.4 µM. The GI50 (HCT-15 colon) was 12.4 µM, the TGI (HCT-15 colon) was 34.1 µM and the GI50 (HL-60(TB) leukemia) was 0.464 µM. The TGI (HL-60(TB) leukemia) was 2.72 µM, the GI50 (HOP-62 NSCLC) was 0.172 µM and the TGI (HOP-62 NSCLC) was 2.58 µM. The GI50 (HOP-92 NSCLC) was 1.32 µM, the TGI (HOP-92 NSCLC) was greater than 100 µM and the GI50 (HS 578T breast) was less than 0.01 µM. The GI50 (HT29 colon) was 10.3 µM, the TGI (HT29 colon) was 24.5 µM and the GI50 (IGROV1 ovarian) was 2.73 µM. It also gave a TGI (IGROV1 ovarian) of 22.2 µM, a GI50 (K-562 leukemia) of less than 0.01 µM and a TGI (K-562 leukemia) of 19.1 µM. The GI50 (KM12 colon) was 4.89 µM, the TGI (KM12 colon) was 21.6 µM and the GI50 (LOX IMVI melanoma) was 0.77 µM. The TGI (LOX IMVI melanoma) was 9.29 µM, the GI50 (M14 melanoma) was 2.18 µM and the TGI (M14 melanoma) was 12 µM. The GI50 (MALME-3M melanoma) was 11.1 µM, the TGI (MALME-3M melanoma) was 24 µM and the GI50 (MCF7 breast) was less than 0.01 µM. For the same compound, the TGI (MCF7 breast) was 17.1 µM, the GI50 (MDA-MB-231 breast) was 16.3 µM and the TGI (MDA-MB-231 breast) was 54.9 µM. It also gave a GI50 (MDA-MB-435 melanoma) of 14.8 µM, a TGI (MDA-MB-435 melanoma) of 40.4 µM and a GI50 (MDA-MB-468 breast) of 0.0283 µM. For the same compound, the TGI (MDA-MB-468 breast) was 0.116 µM, the GI50 (MOLT-4 leukemia) was less than 0.01 µM and the TGI (MOLT-4 leukemia) was 0.0107 µM. The GI50 (NCI-H226 lung) was 1.84 µM, the TGI (NCI-H226 lung) was 11.4 µM and the GI50 (NCI-H23 lung) was 11 µM. For the same compound, the TGI (NCI-H23 lung) was 25.3 µM, the GI50 (NCI-H322M lung) was 7.72 µM and the TGI (NCI-H322M lung) was 29.2 µM. It also gave a GI50 (NCI-H460 NSCLC) of 0.701 µM, a TGI (NCI-H460 NSCLC) of 3.17 µM and a GI50 (NCI-H522 lung) of 13.5 µM. It also gave a TGI (NCI-H522 lung) of 26.7 µM, a GI50 (NCI/ADR-RES ovarian) of 5.91 µM and a TGI (NCI/ADR-RES ovarian) of 21.2 µM. For the same compound, the GI50 (OVCAR-4 ovarian) was 11.4 µM, the TGI (OVCAR-4 ovarian) was 32 µM and the GI50 (OVCAR-5 ovarian) was 23 µM. It also gave a TGI (OVCAR-5 ovarian) of 55.3 µM, a GI50 (OVCAR-8 ovarian) of 0.833 µM and a TGI (OVCAR-8 ovarian) of 14.4 µM. It also gave a GI50 (PC-3 prostate) of 2.17 µM, a TGI (PC-3 prostate) of 18.8 µM and a GI50 (RPMI-8226 leukemia) of 0.901 µM. For the same compound, the TGI (RPMI-8226 leukemia) was 20.7 µM, the GI50 (RXF 393 renal) was less than 0.01 µM and the TGI (RXF 393 renal) was 0.362 µM. It also gave a GI50 (SF-268 CNS) of 0.138 µM, a TGI (SF-268 CNS) of 0.491 µM and a GI50 (SF-295 CNS) of 0.0175 µM. The TGI (SF-295 CNS) was 0.735 µM, the GI50 (SF-539 CNS) was less than 0.01 µM and the TGI (SF-539 CNS) was 12.7 µM. The GI50 (SK-MEL-28 melanoma) was 15.2 µM, the TGI (SK-MEL-28 melanoma) was 29.2 µM and the GI50 (SK-MEL-5 melanoma) was 4.08 µM. For the same compound, the TGI (SK-MEL-5 melanoma) was 15.4 µM, the GI50 (SN12C renal) was 10.7 µM and the TGI (SN12C renal) was 38.9 µM. It also gave a GI50 (SNB-19 CNS) of 1.34 µM, a TGI (SNB-19 CNS) of 37.9 µM and a GI50 (SNB-75 CNS) of less than 0.01 µM. It also gave a TGI (SNB-75 CNS) of 14.4 µM, a GI50 (SW-620 colon) of 0.379 µM and a TGI (SW-620 colon) of 15 µM. For the same compound, the GI50 (T-47D breast) was 12.7 µM, the TGI (T-47D breast) was 28 µM and the GI50 (TK-10 renal) was 0.0598 µM. It also gave a TGI (TK-10 renal) of 43.7 µM, a GI50 (U251 glioblastoma) of 0.0303 µM and a TGI (U251 glioblastoma) of 0.332 µM. It also gave a GI50 (UACC-257 melanoma) of 18.6 µM, a TGI (UACC-257 melanoma) of 33.7 µM and a GI50 (UACC-62 melanoma) of 0.513 µM. It also gave a TGI (UACC-62 melanoma) of 3.74 µM, a GI50 (UO-31 renal) of less than 0.01 µM and a TGI (UO-31 renal) of 0.0398 µM.
